Laboratory results: patent publication US9486472B2, “Methods for modulating neuronal responses” (UNIVERSITY OF BRITISH COLUMBIA CANADA, priority 2003, dated 2016)

How the values were obtained:
hippocampal neurons = test: NMDA- or STS-induced apoptosis in cultured hippocampal neurons (Cell Death ELISA, 11-dUTP, PI staining); assay type: cell-based, rat
Procedure: Hippocampi were rapidly removed from embryonic E l 8 Sprague Dawley rats and pooled prior to trituration. Hippocampal cell suspensions were plated onto poly-Dlysine coated culture dishes or glass coverslips and grown in Neurobasal™ media 10 (Invitrogen) for 14 days in vitro (DIV). The media from mature 14 DIV neurons was removed and replaced with 100 μM NMDA plus 10 μM glycine for 1 h at 37° C. prior to restoring neurons to the defined growth media. Twenty four hours after NMDA/glycine application, neurons were processed using cell death assays. NMDA-induced [Ca^2+]i responses were evoked and measured using methods described previously^26.
Apoptosis quantification: NMDA-induced apoptosis was quantified either using a Cell Death Detection Elisa Plus Kit (Roche Applied Sciences), which is based on the in vitro determination of cytoplasmic histone-associated DNA fragments, or using TdT mediated addition of biotinylated 11-dUTP to the free 3′-OH ends of DNA. Absorbance readings for both assays were carried out using a microplate reader.
Propidium Iodide (PI) staining of nuclei: After the induction of apoptosis, cells were fixed with 4% parafonnaldehyde/4% sucrose for 10 min followed by ice cold acetone for 1 min, and then stained with […] PI in Dulbecco's PBS for 30 min. Stained coverslips were mounted onto glass slides and viewed with a Leica fluorescence microscope to identify condensed nuclei. Cells with condensed nuclei were counted as apoptotic and the percentage of apoptotic cells to the total number of cells was calculated to give a semi-quantitative analysis, expressed as percentage of apoptosis.
A short peptide (YKEGYNVYGIE (SEQ ID NO. 2)) corresponding to amino acid residues from 869 to 879 of the C-terminus of GluR2 (R2-CT) was synthesized and incubated with a carrier protein (Pep-1)23 at a ratio of 1:20 in Dulbecco's modified Eagle's medium
(§1) (DMEM, Gibco) at 37° C. in a humidified atmosphere containing 5% CO2 for 30 min to allow the formation of R2-CT/Pep-1 complex. Hippocampal neurons (DW 12-14) were then overlaid with the preformed complex to reach a final R2-CT concentration of 1 μM and further incubated for 1 h before experiments commenced. Receptor Trafficking Assays

AMPA receptor [1] = test: Cell-ELISA of cell-surface AMPA receptors after NMDA treatment, hippocampal neurons; assay type: cell-based, rat; conditions: 100 μM NMDA + 10 μM glycine 1 h; R2-CT delivered with Pep-1 one hour prior to and during NMDA
Procedure: as §1
Cell ELISA assay: Quantification of cell-surface AMPA or NMDA receptors was performed by a colorimetric cell-ELISA assay essentially as described previously^14. Briefly, hippocampal neurons were treated with 100 μM NMDA plus 10 μM glycine for 1 h and then fixed with 4% paraformaldehyde/4% sucrose in PBS for 10 min. Half of the cells in each treatment condition were then permeabilized with 0.1% Triton-X 100 for 5 min. Receptors on the plasma membrane surface and the total cellular pool were then determined by incubating the cells with monoclonal antibodies against the extracellular domains of GluR2 or NR1 (Chemicon, 1 μg/ml) overnight at 4° C., followed by incubation with HRP-conjugated anti-mouse IgG secondary antibody (1:1000, Amersham Life Sciences) for 1 h at room temperature. Following extensive washing with PBS, cells were incubated with OPD substrate (Sigma) for approximately 10 min. Reactions were stopped with 0.2 volumes of 3N HCl, and absorbance at 492 nm was read using a spectrophotometric microplate reader.

AMPA receptor [2] = test: OGD-induced decrease of cell-surface AMPA receptors (Cell-ELISA), cultured cortical neurons; assay type: cell-based; conditions: GluR2CT peptide (1 mM) with PEP-1, one hour before OGD
Procedure: (§2) Ischemia-like insult was mimicked by oxygen and glucose deprivation (OGD) for one hour in cultured cortical neurons (DIV 12-14). OGD is a well-characterized cell culture model of ischemia. GluR2CT peptide (1 mM) was delivered into neurons by mixing it with the carrier peptide PEP-1 and incubating neurons with the mixture for one hour before OGD challenge. […] (n=6; *: P<0.05, Student's test, compared with Control).

[3] = system: cultured cortical neurons; test: OGD-induced neuronal apoptosis (Cell Death Detection ELISAplus), GluR2-CT with PEP-1; assay type: cell-based; conditions: GluR2CT peptide (1 mM) with PEP-1, one hour before OGD; 24 hr after OGD
Procedure: as §2

pp60 c-Src = pp60 c-Src (Homo sapiens, UniProt P12931); test: In vitro kinase assay with active recombinant Src; assay type: biochemical; conditions: GST fusion protein as substrate
Description: FIGS. 7 A-D. Insulin increases phosphorylation of tyrosine residues within the GluR2 carboxyl terminal (CT) region. A. In vitro tyrosine phosphorylation of the GluR2 CT. GST fusion proteins of the GluR1 CT (GST-GluR1CT), the GluR2 CT (GST-GluR2CT), residues 869-876 (YKEGYNVYG (SEQ ID NO. 4)) of the GluR2 CT (GST-GluR23Y), which contains a cluster of three tyrosine residues (Y869, Y873, and Y876) and the same amino acid stretch of the GluR2 CT with its tyrosine residues replaced by alanines (GST-GluR23A), along with the GST back bone (GST) as control, were incubated in the absence (−) or presence (+) of active recombinant pp60 c-Src. Phosphorylation products were immunoblotted using an anti-phosphotyrosine antibody (top panel). […] B. Expression levels of HA-GluR2 and HA-GluR23Y-3A (where tyrosines 869, 873 and 876 were mutated to alanines) 48 h after transient transfection into HEK293 cells were determined by a cell ELISA assay using permeabilized cells. C. HEK293 cells transiently transfected with HA-GluR1, HA-GluR2 or HA-GluR23Y-3A, along with empty vector (mock transfection) as control. Forty-eight hours later, the cells were treated with or without 0.5 μM insulin for 10 min. The lysates were then subjected to immunoprecipitation with an anti-HA antibody under denaturing conditions and immunoblotting with an anti-phosphotyrosine antibody (Top blot; IB: PY). […]

[4] = system: CA1 neurons in hippocampal slices; test: Insulin-induced depression of AMPA receptor-mediated EPSCs, whole-cell recording of CA1 neurons; assay type: cell-based, rat; conditions: 100 μg/ml in recording pipette; insulin 0.5 μM in bath
Procedure: GST-GluR23Y and GST-GluR23A were constructed by subcloning corresponding PCR fragments into pGEX 4T-1 vectors. GST fusion proteins were expressed in DH5α E. coli and purified from bacterial lysates according to the manufacturer's protocol (Pharmacia). Products were dialyzed in PBS and concentrated using Microcon-10 columns (Amicon) for intracellular application during whole-cell recordings.
Hippocampal slices (400 μm thickness) were prepared from Sprague-Dawley rats aged 16-26 postnatal days and perfused at room temperature with artificial cerebrospinal fluid containing (mM): 126 NaCl, 26 NaHCO3, 10 glucose, 3 KCl, 1.2 KH2PO4, 1 MgCl2, and 1 CaCl2, saturated with 95% O2/5% CO2^14. The recording pipettes (4-5 MO) were filled with solution containing (mM): 135 CsCl, 10 HEPES, 5 QX-314, 4 Mg-ATP, 2 MgCl2, 0.5 EGTA, 0.2 GTP and 0.1 CaCl2, pH 7.4, 310 mOsm. Whole-cell recording of CA1 neurons and the induction of LFS-LTD were performed as previously described.^14 […]

[5] = system: CA1 neurons in hippocampal slices; test: LFS-induced hippocampal CA1 long-term depression (LTD); assay type: cell-based, rat; conditions: postsynaptic application, 100 μg/ml; 1 Hz for 15 min
Procedure: Hippocampal slices (400 μm thickness) were prepared from Sprague-Dawley rats aged 16-26 postnatal days and perfused at room temperature with artificial cerebrospinal fluid containing (mM): 126 NaCl, 26 NaHCO3, 10 glucose, 3 KCl, 1.2 KH2PO4, 1 MgCl2, and 1 CaCl2, saturated with 95% O2/5% CO2^14. The recording pipettes (4-5 MO) were filled with solution containing (mM): 135 CsCl, 10 HEPES, 5 QX-314, 4 Mg-ATP, 2 MgCl2, 0.5 EGTA, 0.2 GTP and 0.1 CaCl2, pH 7.4, 310 mOsm. Whole-cell recording of CA1 neurons and the induction of LFS-LTD were performed as previously described.^14
The level of GluR2 tyrosine phosphorylation was assayed following low-frequency stimulation (LFS) of hippocampal slices (1 Hz for 15 min, which reliably induces LTD under our experimental conditions), to determine whether tyrosine phosphorylation of GluR2 CT may be required for LFS-induced long term depression (LTD). Slices were homogenized in denaturing buffer 10 min after the stimulation and GluR subunits were immunoprecipitated and probed for phosphotyrosine. […] Induction of LTD by LFS was blocked by postsynaptic application of GST-GluR23Y (100 μg/ml), but not by the mutant peptide GST-GluR23A (100 μg/ml; FIG. 10B) or by GST-GluR2834-843 (FIG. 10C).

[6] = system: AMPA receptor (wild type GluR2); test: Colorimetric cell-ELISA receptor internalization assay, HEK293 cells expressing GluR2; assay type: cell-based, rat; conditions: insulin 0.5 μM, 10 min; approximately 25% without insulin
Description: Rat HA-tagged GluR1 and GluR2 receptor subunit cDNAs have been described previously^14. Constructs of HA-GluR2 carboxyl internal deletion or truncation mutants were made by standard PCR methods. The HA-GluR23Y-3A mutant was made using a Quick-Change Site Directed Mutagenesis Kit (Stratagene). HEK293 cells (ATCC) were transfected using the calcium phosphate precipitation method. Thirty six to forty eight hours after transfection, cells were washed with extracellular recording solution (ECS in mM: 140 NaCl, 33 glucose, 25 HEPES, 5.4 KCl, 1.3 CaCl2; pH 7.4, 320 mOsm) and incubated in ECS for at least one hour (serum starvation). […]
The ability of these mutants to undergo both constitutive and regulated endocytosis was assayed as described previously.^14 Surface receptors in live cells were pre-labelled with an anti-HA antibody (or an antibody against the extracellular N-terminal domain of GluR2 in the case of GluR2Δ854) at 4° C. […] Internalised receptors were then visualised by confocal microscopy and quantitated by colorimetric cell-ELISA-based receptor internalization assays (FIG. 6A). […] Transfected cells were pre-labeled with anti-HA antibody and then receptor endocytosis was evaluated under basal conditions (constitutive endocytosis) or following insulin stimulation (0.5 μM, 10 min; regulated endocytosis). […]

Substance: YKEGYNVYGIE [R2-CT, short peptide corresponding to amino acid residues 869 to 879 of the C-terminus of GluR2]
- NMDA-induced apoptosis, peptide or carrier alone (hippocampal neurons; R2-CT alone or Pep-1 alone): neither R2-CT nor Pep-1 alone had any detectable effect
- STS-induced neuronal apoptosis (hippocampal neurons; staurosporine 100 nM, 1 h): did not alter STS-induced neuronal apoptosis
- NMDA-induced reduction of cell-surface AMPA receptors (AMPA receptor [1]): prevented
- OGD-induced decrease in cell-surface AMPA receptor expression (AMPA receptor [2]): reduced the OGD-induced decrease in cell-surface AMPA receptor expression
- OGD-induced neuronal death [3]: largely prevented

Substance: GSTYKEGYNVYG [GST-GluR23Y, GST fusion protein of the nine amino-acid GluR2 CT stretch with three tyrosines]
- tyrosine phosphorylation by recombinant Src kinase (pp60 c-Src): phosphorylated
- insulin-induced EPSC depression [4]: prevented
- induction of LTD by LFS [5]: blocked

Substance: insulin: human recombinant insulin (Sigma)
- cell-surface receptors endocytosed within 30 min [6]: 48%
